Experimental data reported in PMC7762498, “Demethoxycurcumin analogue DMC-BH exhibits potent anticancer effects on orthotopic glioblastomas” (Aging (Albany NY), 2020).

Assays:
U87 cell line = test: Subcutaneous human glioma xenograft in SCID mice; assay type: in vivo; conditions: for tumor volume at day 21: U87 subcutaneous xenograft, 20 mg/kg/day intraperitoneal, 21 days, control 1514 mm^3; for median survival: U87 xenograft, 20 mg/kg, control 15 days
Description: To examine the anti-glioma effects of DMC-BH in vivo, a human glioma-SCID (severe combined immunodeficient) mouse model was established using the U87 cell line. […] The tumor volumes for the control, TMZ, DMC, and DMC-BH mice at day 21 were 1514 mm^3, 587 mm^3, 876 mm^3 and 570 mm^3, respectively. […] As shown in the Kaplan-Meier curves, the median survival was 15, 27, 19 and 35 days for the control, TMZ, DMC and DMC-BH groups, respectively (Figure 3B).
Figure 3 DMC-BH inhibited U87 glioma cell growth in vivo. Subcutaneous tumors generated from U87 cells were allowed to reach a volume of 150-200 mm^3 and were treated with 20 mg/kg TMZ, DMC or DMC-BH for 21 days. (A) Tumor volume was recorded according to treatment group at the indicated day. (B) The survival of brain tumor-bearing mice was recorded and represented in a Kaplan-Meier plot.
1-[4-Hydroxy-3-(pyrrolidin-1-ylmethyl) phenyl]-7-(4-hydroxy-3-methoxyphenyl) hepta-1,6-diene-3,5-dione, named DMC-BH, was constructed by our lab. DMC was obtained from Sigma-Aldrich (St. Louis, MO). To test the anti-glioma effect of DMC-BH in vivo, a xenograft model of human glioma was established. Four-week-old male SCID mice were purchased from Vital River Laboratory Animal Technology Co., Ltd. (Beijing, China). After a 1-week acclimatization, SCID mice were injected subcutaneously in the right flank with 6 × 10^5 […] glioma cells resuspended in 50 μL DMEM media. Treatment was initiated when the subcutaneous tumors reached an average size of 150 mm^3 to 200 mm^3. Mice received intraperitoneal injection of DMC (20 mg/kg/day), DMC-BH (20 mg/kg/day), TMZ (20 mg/kg/day) or vehicle as a control. Tumor diameter was measured every 2 days with calipers, and the tumor volume was calculated (length × width × height × 0.5). All experiments were carried out in keeping with the procedures and protocols of the Animal Ethics Committee of the First People's Hospital of Kunshan.

p-Akt = test: Western blot of orthotopic xenograft tissue, p-Akt; assay type: in vivo, mice; conditions: U87 orthotopic xenografts, versus control
Description: The PI3K/Akt/mTOR signaling pathway is over activated in glioma tissues, and this increased activation is closely related to malignancy and chemoresistance of gliomas. Previous research reported that among its potential anti-tumor actions in breast cancer, DMC targeted multiple AMPK downstream pathways involving dephosphorylation of Akt and mTOR inhibition. Because DMC-BH is a DMC derivative, we further investigated the inhibitory effects of DMC-BH on gliomas by targeting the Akt/mTOR signaling pathway. We evaluated the expression of p-Akt, and p-mTOR in tumor tissues after DMC-BH treatment (Figure 6A). […] No significant changes were found in total Akt and mTOR expression. Moreover, the expression of p-Akt and p-mTOR in the DMC group was decreased with that in the control group (P < 0.05).
Figure 6 The effects of DMC-BH and DMC on the Akt/mTOR signaling pathway in U87 orthotopic glioblastoma xenografts. (A) Total protein was extracted from U87 orthotopic glioblastoma xenografts. Then p-Akt and p-mTOR protein expression was detected by Western blot. (B) The column chart illustrates the relative expression levels of these proteins.

Plasma protein binding = assay type: in vitro ADME
CYP-450 = test: CYP-450-related metabolism; assay type: in vitro ADME
primary glioma cells = test: MTT cell viability assay, primary glioma cells; assay type: cell-based; conditions: 72 h
Experimental: (§1) To investigate the cytotoxicity of DMC-BH on glioma cells (Figure 1A), we used an MTT assay to assess viability changes in SHG-44, C6, U251, U87, A172 and primary glioma cells treated with various concentrations of DMC-BH for 24, 48 or 72 hours (Figure 1B–1H). […] U251 and SHG-44 cells were more sensitive to DMC-BH. We then used the human glial cell line, HEB, to evaluate the toxicity of DMC-BH in normal cells. […] DMC-BH was not toxic to normal cells.
(§2) The human GBM U87-luc cell line was purchased from the Shanghai Sunbio Medical Biotechnology Co., Ltd. (Shanghai, China). Cells were cultured in DMEM supplemented with 10% fetal bovine serum (FBS) and maintained in an incubator at 37° C and 5% CO2. After cells were routinely passaged at 2- to 3-day intervals, animal experiments were carried out when the cells entered exponential growth phase. Rat C6, human SHG-44, U87, A172 and U251 glioma cells were obtained from the Shanghai Institute of Cell Biology, Chinese Academy of Sciences (Shanghai, China). Primary glioma cells were preserved by our laboratory from previous studies. […]
(§3) Glioblastoma cells were seeded into 96-well plates and exposed to vehicle (PBS) or different concentrations of DMC-BH for 24, 48 or 72 hours. Cell viability was measured using an MTT assay and was expressed as a ratio to the absorbance value of the control cells at 570 nm.

C6 glioma cells = test: MTT cell viability assay, C6; assay type: cell-based; conditions: Rattus norvegicus, 72 hours
Experimental: as §1, §2, §3

[1] = BBB penetrability (brain-to-plasma AUC ratio); assay type: in vivo
Description: To determine whether DMC-BH inhibits the growth of glioma in the brain, we assessed its octanol-water partition coefficients and BBB penetrability. The hydrophobic parameters (logP) of DMC-BH and DMC were estimated under physiological as well as in acidic and basic conditions. The logP values for DMC-BH were negative at pH 2.5 and pH 9.0, as it was an amphoteric compound. At low pH or high pH conditions, DMC-BH occurred in the form of salts, and its logP values became negative due to better solubility.
Figure 2 Octanol-water partition coefficients (logP) and BBB penetrability of DMC-BH. (A) The logP was defined as log(Coctanol/Cwater). The amount of the compound in the water phase was determined spectrophotometrically, and the amount in the octanol phase was obtained by subtracting the supernatant concentration from the total concentration. (B) The BBB penetrability was defined as a brain-to-plasma AUC(time point) ratio. Values are expressed as the means ± SEM of 3 independent experiments.

Row | Molecule | tumor volume at day 21 (U87 cell line) [mm^3] | median survival (U87 cell line) [days] | p-Akt expression in tumor tissues (p-Akt) | fraction unbound (Plasma protein binding) | CYP-450-related metabolism (CYP-450) | IC50 (primary glioma cells; primary glioma cells sample 1, 72 hours) [µM] | IC50 (primary glioma cells; primary glioma cells sample 2, 72 hours) [µM] | IC50 (C6 glioma cells) [µM] | Kp at 4 h ([1]; brain and plasma) | brain-to-plasma AUC(4h) ratio [1]
1 | COc1cc(C=CC(=O)CC(=O)C=Cc2ccc(O)c(CN3CCCC3)c2)ccc1O [DMC-BH, 1-[4-Hydroxy-3-(pyrrolidin-1-ylmethyl)phenyl]-7-(4-hydroxy-3-methoxyphenyl) hepta-1,6-diene-3,5-dione] | 570 | 35 | significantly decreased | 0.038 | low | 8.05 | 4.61 | 5.79 | 4.6 | –
2 | Demethoxycurcumin [DMC, reference compound] | 876 | 19 | decreased | – | – | – | – | – | – | 0.56
